For series [1], the target named is BuChE from equine serum (Equus caballus, UniProt P81908). As to the kind of experiment: BuChE inhibition, Ellman's method. Format: biochemical.
Series [2] has as its target AChE from electric eel (Electrophorus electricus, UniProt O42275). As to the kind of experiment: AChE inhibition, Ellman's method. The format is biochemical. To be noted: IC50 ± SD (μM) AChE, means ± SD of three experiments. (In general: In Ellman's method for cholinesterases, released thiocholine reacts with DTNB.)
In series [3] the target is T1, Aβ1-42 (Homo sapiens, UniProt P05067). The series can be described thus: TEM study of inhibition of Aβ1-42 fibril formation. Format: biochemical. The settings on record: Aβ1-42 50 μM, compound 50 μM, 37 °C, 48 h.
T1 sequence (P05067 672-713): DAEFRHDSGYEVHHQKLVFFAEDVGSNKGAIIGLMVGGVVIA
The test system of series [4] is scopolamine induced mice model of dementia. As to the kind of experiment: Elevated plus maze. The settings on record: n = 6, SEM. Format: in vivo.
Series [5] is described as follows: In vitro cytotoxicity, MTT assay. Format: cell-based, human. To be noted: human, SH-SY5Y cells. (In general: Tetrazolium dyes change colour on reduction, which living cells bring about.)
For series [6], the system named is SH-SY5Y cells. The series can be described thus: In vitro cytotoxicity, MTT assay. To be noted: 1 and 5 μM, 24 h, MTT. The format is cell-based, human.
Series [7] deals with scopolamine induced mice. The series can be described thus: Social recognition test, scopolamine induced mice. Format: in vivo.
Series [8] addresses AChE (Electrophorus electricus, UniProt O42275). The series can be described thus: Kinetic characterization of AChE inhibition, Lineweaver–Burk plot. The format is biochemical. To be noted: Lineweaver–Burk reciprocal plots; compound at 2, 6 and 8 μM.
For series [9], the target named is T1, Aβ1-42. As to the kind of experiment: Confocal laser scanning microscopy of Aβ1-42 aggregation inhibition. Format: biochemical. The settings on record: Aβ1-42 co-incubated with compound, 48 h, 37 °C.
In series [10] the test system is SH-SY5Y cells. The series can be described thus: Neuroprotection against H2O2-induced death, MTT assay. To be noted: 200 μM H2O2 for 24 h.

“And” between values parts separate entries of the source, which are not always exact repeats. Equal values may be shown once. Where a name gives a salt, the structure may show the parent alone.

AChE from electric eel, sequence (O42275 24-633): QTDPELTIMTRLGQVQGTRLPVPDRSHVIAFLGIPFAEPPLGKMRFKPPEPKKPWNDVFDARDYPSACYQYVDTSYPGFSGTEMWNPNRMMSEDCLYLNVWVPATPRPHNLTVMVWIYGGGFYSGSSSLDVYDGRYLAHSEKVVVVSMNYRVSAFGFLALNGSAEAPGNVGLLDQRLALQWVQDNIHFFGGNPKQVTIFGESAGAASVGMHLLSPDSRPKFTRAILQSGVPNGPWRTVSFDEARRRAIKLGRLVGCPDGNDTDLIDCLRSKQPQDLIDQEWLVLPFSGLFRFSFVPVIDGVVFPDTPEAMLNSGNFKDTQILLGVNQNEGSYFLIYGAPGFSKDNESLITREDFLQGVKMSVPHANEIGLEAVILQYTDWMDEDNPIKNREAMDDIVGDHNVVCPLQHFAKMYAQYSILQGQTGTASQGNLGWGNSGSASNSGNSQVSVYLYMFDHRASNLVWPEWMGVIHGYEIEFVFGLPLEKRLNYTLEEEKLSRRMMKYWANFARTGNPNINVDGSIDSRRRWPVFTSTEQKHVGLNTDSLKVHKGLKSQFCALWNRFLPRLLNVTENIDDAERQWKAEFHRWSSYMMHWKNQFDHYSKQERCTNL
BuChE from equine serum, sequence (P81908 whole entry): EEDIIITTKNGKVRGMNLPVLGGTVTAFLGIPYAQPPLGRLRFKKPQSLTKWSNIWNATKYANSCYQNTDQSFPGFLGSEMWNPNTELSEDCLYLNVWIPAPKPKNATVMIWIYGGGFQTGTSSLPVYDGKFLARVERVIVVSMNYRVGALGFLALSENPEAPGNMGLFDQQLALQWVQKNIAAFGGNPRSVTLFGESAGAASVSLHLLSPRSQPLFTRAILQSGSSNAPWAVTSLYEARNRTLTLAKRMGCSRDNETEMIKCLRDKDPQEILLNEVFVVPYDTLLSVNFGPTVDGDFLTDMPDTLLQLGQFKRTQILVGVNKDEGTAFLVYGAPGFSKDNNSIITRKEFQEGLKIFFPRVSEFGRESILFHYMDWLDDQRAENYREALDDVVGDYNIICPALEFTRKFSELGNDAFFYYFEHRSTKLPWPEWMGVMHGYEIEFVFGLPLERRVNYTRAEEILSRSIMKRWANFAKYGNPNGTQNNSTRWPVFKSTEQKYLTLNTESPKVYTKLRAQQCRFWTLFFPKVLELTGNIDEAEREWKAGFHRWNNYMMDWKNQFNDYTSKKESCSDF
AChE, sequence (O42275 24-633): as the sequence (O42275 24-633) above

One may read the IC50 as the concentration that gives 50% inhibition. Consider `CS(=O)(=O)c1ccc2nc(NC(=O)CCN3CCN(c4ccccc4)CC3)sc2c1` [Compound 4, N-(6-Methanesulfonyl-benzothiazol-2-yl)-3-(4-phenyl-piperazin-1-yl)-propionamide], for which the IC50 was greater than 100 µM in series [1] and 24.1 ± 0.721 µM in series [2].

For the compound `CS(=O)(=O)c1ccc2nc(NC(=O)CCN3CCN(c4ccc(F)cc4)CC3)sc2c1` [Compound 5, 3-[4-(4-Fluoro-phenyl)-piperazin-1-yl]-N-(6-methanesulfonyl-benzothiazol-2-yl)-propionamide], the IC50 in series [1] is greater than 100 µM; in series [2] it was 18.3 ± 0.777 µM.

With `CS(=O)(=O)c1ccc2nc(NC(=O)CCN3CCN(c4ccc(Cl)cc4)CC3)sc2c1` [Compound 6, 3-[4-(4-Chloro-phenyl)-piperazin-1-yl]-N-(6-methanesulfonyl-benzothiazol-2-yl)-propionamide], the IC50 is greater than 100 µM in [1] and 13 ± 0.813 µM in series [2].

As for `CS(=O)(=O)c1ccc2nc(NC(=O)CCN3CCN(c4ccc([N+](=O)[O-])cc4)CC3)sc2c1` [Compound 7, N-(6-Methanesulfonyl-benzothiazol-2-yl)-3-[4-(4-nitro-phenyl)-piperazin-1-yl]-propionamide], the IC50 in series [1] was greater than 100 µM; in [2], 11.3 ± 1.8 µM.

For `Cc1ccc(N2CCN(CCC(=O)Nc3nc4ccc(S(C)(=O)=O)cc4s3)CC2)cc1` [Compound 8, N-(6-Methanesulfonyl-benzothiazol-2-yl)-3-(4-p-tolyl-piperazin-1-yl)-propionamide], the IC50 in series [1] was greater than 100 µM; in series [2], 20.2 ± 1.44 µM.

Turning to `COc1ccc(N2CCN(CCC(=O)Nc3nc4ccc(S(C)(=O)=O)cc4s3)CC2)cc1` [Compound 9, N-(6-Methanesulfonyl-benzothiazol-2-yl)-3-[4-(4-methoxy-phenyl)-piperazin-1-yl]-propionamide], the IC50 is greater than 100 µM in [1] and 14.5 ± 1.03 µM in series [2].

In the case of `CS(=O)(=O)c1ccc2nc(NC(=O)CCN3CCN(Cc4ccccc4)CC3)sc2c1` [Compound 10, 3-(4-Benzyl-piperazin-1-yl)-N-(6-methanesulfonyl-benzothiazol-2-yl)-propionamide], the IC50 was greater than 100 µM in series [1] and 7.83 µM in series [2].

On to `CS(=O)(=O)c1ccc2nc(NC(=O)CCN3CCN(C(c4ccccc4)c4ccccc4)CC3)sc2c1` [Compound 11, 3-(4-Benzhydryl-piperazin-1-yl)-N-(6-methanesulfonyl-benzothiazol-2-yl)-propionamide], for which the IC50 in series [1] is greater than 100 µM; in [2], 4.54 µM and 4.55 µM.

By viability is commonly meant a read-out of living cells in per cent, often relative to untreated cells. Lower therefore signals a greater loss of cells. `CS(=O)(=O)c1ccc2nc(NC(=O)CCN3CCN(c4ccccn4)CC3)sc2c1` [Compound 12, N-(6-Methanesulfonyl-benzothiazol-2-yl)-3-(4-pyridin-2-yl-piperazin-1-yl)-propionamide]: in series [3], the “Aβ1-42 fibril formation by TEM” value is “small dissociated aggregates and no characteristic fibrils of Aβ1-42”. For the same compound, the IC50 in series [1] was greater than 100 µM; in [2] it was 2.31 µM and 2.32 µM. Further, the “Transfer latency (TL)” value was 12.81 ± 2.08 s in series [4] (scopolamine 3 mg kg−1 + compound 10 mg kg−1 i.p., 7 days) and 12.62 ± 2.60 s in series [4] (scopolamine 3 mg kg−1 + compound 20 mg kg−1 i.p., 7 days). Further, the viability at 24 h, 10 µM in [5] was greater than 67%. In addition, the Cytotoxicity entry in series [6] is on record as “no cytotoxicity”. In series [7] (scopolamine + compound 20 mg kg−1, mean SEM of 6 animals), the “T2/T1 ratio (second interaction trial/first interaction trial)” value was 0.377 ± 0.00072. In addition, the “Type of AChE inhibition” value in [8] is recorded as “uncompetitive type of inhibition”. In addition, the “Aβ1-42 aggregation by confocal laser scanning microscopy (ThT fluorescence)” value in series [9] is given as “proficiently prevents Aβ1-42 fibril formation”.

For `CS(=O)(=O)c1ccc2nc(NC(=O)CCN3CCN(c4ncccn4)CC3)sc2c1` [Compound 13, N-(6-Methanesulfonyl-benzothiazol-2-yl)-3-(4-pyrimidin-2-yl-piperazin-1-yl)-propionamide], the IC50 is greater than 100 µM in [1] and 10.9 ± 0.657 µM in series [2].

For the compound `CS(=O)(=O)c1ccc2nc(NC(=O)CCN3CCN(C(=O)c4ccco4)CC3)sc2c1` [Compound 14, 3-[4-(Furan-2-carbonyl)-piperazin-1-yl]-N-(6-methanesulfonyl-benzothiazol-2-yl)-propionamide], the IC50 in series [1] was greater than 100 µM; in series [2], 14.6 ± 0.438 µM.

For `CS(=O)(=O)c1ccc2nc(NC(=O)CCN3CCN(C(=O)OCc4ccccc4)CC3)sc2c1` [Compound 15, 4-[2-(6-Methanesulfonyl-benzothiazol-2-ylcarbamoyl)-ethyl]-piperazine-1-carboxylic acid benzyl ester], the values for the IC50 in [1] and in series [2] were greater than 100 µM and 19.5 ± 0.452 µM, respectively.

For the compound `CS(=O)(=O)c1ccc2nc(NC(=O)CCN3CCN(Cc4ccc5c(c4)OCO5)CC3)sc2c1` [Compound 16, 3-(4-Benzo[1,3]dioxol-5-ylmethyl-piperazin-1-yl)-N-(6-methanesulfonyl-benzothiazol-2-yl)-propionamide], the IC50 in [1] was greater than 100 µM; in series [2], 5.24 µM.

With `CS(=O)(=O)c1ccc2nc(NC(=O)CCN3CCN(c4ccc(C(F)(F)F)cc4)CC3)sc2c1` [Compound 17, N-(6-Methanesulfonyl-benzothiazol-2-yl)-3-[4-(4-trifluoromethyl-phenyl)-piperazin-1-yl]-propionamide], the IC50 is greater than 100 µM in [1] and 26.4 ± 0.551 µM in [2].

For `OO` [Compound H2O2, hydrogen peroxide], the “Cell viability with H2O2 alone” value in [10] was 54.90%.

In the case of `COc1cc(/C=C/C(=O)CC(=O)/C=C/c2ccc(O)c(OC)c2)ccc1O` [Curcumin, reference compound], the “Aβ1-42 fibril formation by TEM” value in [3] was “small dissociated aggregates and no characteristic fibrils of Aβ1-42”.

As for `COc1cc2c(cc1OC)C(=O)C(CC1CCN(Cc3ccccc3)CC1)C2` (centres unmarked) [Donepezil, reference compound], the “Transfer latency (TL)” value in [4] (scopolamine 3 mg kg−1 + donepezil 5 mg kg−1 i.p., 7 days) amounted to 15.08 ± 1 s.

With `CN1[C@@H]2C[C@@H](OC(=O)[C@H](CO)c3ccccc3)C[C@H]1[C@@H]1O[C@@H]12` [scopolamine, Scopolamine hydrobromide, reference compound], in [4] (scopolamine 3 mg kg−1 i.p. alone, retention trial), the “Transfer latency (TL)” value was 22.00 ± 0.81 s. Moreover, the “T2/T1 ratio (second interaction trial/first interaction trial)” value in [7] (scopolamine 3 mg kg−1 alone, mean SEM of 6 animals) was found to be 1.103 ± 0.037.

These data come from publication PMC9053591 (RSC Advances, 2020).
